# According to patent US20250236616A1, “IMMUNOMODULATING AZALIDES” (Zoetis Services LLC, priority 2021, published 2025):
# Legend:
# IL-6 = assay: Whole bovine blood assay, LPS-induced IL-6; format: cell-based; settings: fresh whole bovine blood, LPS stimulant, top drug concentration 250 μM
# TNF-α = assay: Whole bovine blood assay, LPS-induced TNF-α; format: cell-based; settings: fresh whole bovine blood, LPS stimulant, top drug concentration 250 μM
# Experimental: Whole Blood Assay-Fresh whole bovine blood samples were collected into heparinized vacutainer tubes. Assay plates were prepared with 25 μL of drug diluted in PBS at varying concentration in 96 round bottom wells, then 225 μL of blood was added and plates incubated at 37° C. for 4 hours. Cells were stimulated with LPS (or PBS for controls) by adding 25 μL to the plates at a final concentration of 1 μg/mL and incubated at 37° C. for 18 hours. To collect plasma, plates were centrifuged at 2,000×g for 10 minutes and 100 μL of supernatant was transferred to a 96 well polypropylene plate that was sealed and stored at −80° C. Samples were assayed for cytokines using the Meso Scale Discovery (MSD) platform (described below). This same MSD platform was used to assess cytokines in the plasma collected directly from drug treated animals.
# Cytokine Detection—An MSD U-Plex cytokine assay was developed following the MSD U-Plex protocol guide and included biotinylated capture antibodies against: bovine Interleukin (IL)-1β (Biorad), bovine IL-6 (R&D Systems) and bovine tumor necrosis factor (TNF)-α (R&D Systems). […] Assay calibrators (Kingfisher) were diluted to a concentration of […] in control lithium heparin plasma, followed by 4-fold serial dilutions into plasma. […] Antibodies were used at the following concentrations: anti-IL-1β at 1 μg/mL, anti-IL-6 at 1 μg/mL and anti-TNF-α at 0.5 μg/mL. Cytokines were quantified according to manufacturer's instructions using a chemiluminescent readout. In brief, 0.5 mL of all biotinylated antibodies were diluted to 10 μg/mL with Diluent 100 and paired to their respective linkers by adding 750 μL of supplied Linker solution and incubated for 30 minutes followed by addition of Stop solution for another 30 minutes. The linked antibodies were then diluted 10-fold into Stop solution. Plates were coated by adding 50 μL of antibody solutions per well and incubated covered and shaking for 1 hour at room temperature. Plates were washed three times with PBS/Tween20 prior to samples or standards being added at 30 μL per well and incubated as above. Plates were washed three times before detection antibodies were added along with 2% goat and rabbit serum to block and incubated same as above. Plates were washed a further three times before addition of 150 μL 2X Read buffer and read immediately on the SI6000 instrument (MSD). For soluble protein levels, a BCA protein kit (Thermofisher) was used. The cytokine concentrations (pg/mL) were normalized to the total protein levels for each sample. [Bassel et. al., BMC Veterinary Research (2020) 16:168]
# Therefore, a fresh whole bovine blood assay was developed with LPS as a stimulant (TLR-4 agonist) and with IL-1β and TNF-α as the read-out. Compounds of the invention were evaluated against a positive control for their ability to inhibit LPS-induced IL-1β and TNF-α as an overall evaluation of relative potency and modulation of target pathways.
# TNFα is a cell signaling protein, cytokine, that plays a key role in both acute and chronic inflammation. In the bovine whole blood in vitro screening assay the inhibition of TNFα as induced by stimulation by lipopolysaccharide (LPS) and as measured by half the maximal inhibitory concentration (IC50) is recognized as the primary biomarker of immunomodulation potency upon pretreatment with the compounds of the invention. IL-1 B is a mediator of the inflammation response and is involved in a number of cellular activities including proliferation, differentiation and apoptosis. IL-1ß is also released upon cellular stress or cytotoxicity or upon TLR stimulation. […] In order to estimate a therapeutic index from the in vitro assay a differential between the TNFα IC50 (immunomodulation potency) versus the perceived cellular toxicity concentration (IL-1β release or overstimulation) was utilized.
IC50 (IL-6; Bos taurus),IC50 (TNF-α; Bos taurus),IC50 (IL-6),IC50 (TNF-α),Structure (SMILES)
9 µM,8 µM,–,–,CCCNC[C@]1(O)[C@H](C)O[C@@H](O[C@H]2[C@H](C)[C@@H](O[C@@H]3O[C@H](C)C[C@H](N(CCC)S(=O)(=O)c4ccc(Cl)cc4)[C@H]3O)[C@](C)(O)C[C@@H](C)CN[C@H](C)[C@@H](O)[C@](C)(O)[C@@H](CC)OC(=O)[C@@H]2C)C[C@@]1(C)OC [Example B-142]
–,–,15 µM,7 µM,CCCNC[C@]1(O)[C@H](C)O[C@@H](O[C@H]2[C@H](C)[C@@H](O[C@@H]3O[C@H](C)C[C@H](N(C)S(=O)(=O)c4ccc(C)cc4)[C@H]3O)[C@](C)(O)C[C@@H](C)CN(CCC)[C@H](C)[C@@H](O)[C@](C)(O)[C@@H](CC)OC(=O)[C@@H]2C)C[C@@]1(C)OC [Example B-154]
–,–,6 µM,4 µM,CC[C@H]1OC(=O)[C@H](C)[C@@H](O[C@H]2C[C@@](C)(OC)[C@](O)(CN3CCCCC3)[C@H](C)O2)[C@H](C)[C@@H](O[C@@H]2O[C@H](C)C[C@H](N(C)S(=O)(=O)Nc3ccc(C(C)(C)C)cc3)[C@H]2O)[C@](C)(O)C[C@@H](C)CN[C@H](C)[C@@H](O)[C@]1(C)O [Example C-22]
–,–,26 µM,8 µM,CC[C@H]1OC(=O)[C@H](C)[C@@H](O[C@H]2C[C@@](C)(OC)[C@](O)(CNCc3ccccc3)[C@H](C)O2)[C@H](C)[C@@H](O[C@@H]2O[C@H](C)C[C@H](N(C)S(=O)(=O)Nc3ccc(C(F)(F)F)cc3)[C@H]2O)[C@](C)(O)C[C@@H](C)CN[C@H](C)[C@@H](O)[C@]1(C)O [Example B-90]
–,–,17 µM,5 µM,CC[C@H]1OC(=O)[C@H](C)[C@@H](O[C@H]2C[C@@](C)(OC)[C@](O)(CNCc3ccc(C(F)(F)F)cc3)[C@H](C)O2)[C@H](C)[C@@H](O[C@@H]2O[C@H](C)C[C@H](N(C)S(=O)(=O)c3ccc(Cl)cc3)[C@H]2O)[C@](C)(O)C[C@@H](C)CN[C@H](C)[C@@H](O)[C@]1(C)O [Example B-25]
–,–,13 µM,4 µM,CC[C@H]1OC(=O)[C@H](C)[C@@H](O[C@H]2C[C@@](C)(OC)[C@](O)(CNC3CC3)[C@H](C)O2)[C@H](C)[C@@H](O[C@@H]2O[C@H](C)C[C@H](N(C)S(=O)(=O)Nc3ccc(C(F)(F)F)cc3)[C@H]2O)[C@](C)(O)C[C@@H](C)CN[C@H](C)[C@@H](O)[C@]1(C)O [Example B-70]
–,–,26 µM,9 µM,CC[C@H]1OC(=O)[C@H](C)[C@@H](O[C@H]2C[C@@](C)(OC)[C@](O)(CNCC(C)C)[C@H](C)O2)[C@H](C)[C@@H](O[C@@H]2O[C@H](C)C[C@H](N(C)S(=O)(=O)Nc3ccc(C(F)(F)F)cc3)[C@H]2O)[C@](C)(O)C[C@@H](C)CN[C@H](C)[C@@H](O)[C@]1(C)O [Example B-85]
–,–,23 µM,9 µM,CC[C@H]1OC(=O)[C@H](C)[C@@H](O[C@H]2C[C@@](C)(OC)[C@](O)(CNCc3ccncc3)[C@H](C)O2)[C@H](C)[C@@H](O[C@@H]2O[C@H](C)C[C@H](N(C)S(=O)(=O)Nc3ccc(C(F)(F)F)cc3)[C@H]2O)[C@](C)(O)C[C@@H](C)CN[C@H](C)[C@@H](O)[C@]1(C)O [Example B-89]
–,–,6 µM,6 µM,CC[C@H]1OC(=O)[C@H](C)[C@@H](O[C@H]2C[C@@](C)(OC)[C@](O)(CN3CCCCC3)[C@H](C)O2)[C@H](C)[C@@H](O[C@@H]2O[C@H](C)C[C@H](N(CC(C)C)S(=O)(=O)c3ccc(Cl)cc3)[C@H]2O)[C@](C)(O)C[C@@H](C)CN[C@H](C)[C@@H](O)[C@]1(C)O [Example C-42]
–,–,31 µM,22 µM,CCCN1C[C@H](C)C[C@@](C)(O)[C@H](O[C@@H]2O[C@H](C)C[C@H](N(C)S(N)(=O)=O)[C@H]2O)[C@@H](C)[C@H](O[C@H]2C[C@@](C)(OC)[C@](O)(CNc3ccc(OC)cc3)[C@H](C)O2)[C@@H](C)C(=O)O[C@H](CC)[C@@](C)(O)[C@H](O)[C@H]1C [Example B-157]
–,–,13 µM,8 µM,CC[C@H]1OC(=O)[C@H](C)[C@@H](O[C@H]2C[C@@](C)(OC)[C@](O)(CNCc3cscn3)[C@H](C)O2)[C@H](C)[C@@H](O[C@@H]2O[C@H](C)C[C@H](N(C)S(=O)(=O)c3ccc(Cl)cc3)[C@H]2O)[C@](C)(O)C[C@@H](C)CN[C@H](C)[C@@H](O)[C@]1(C)O [Example B-37]
–,–,10 µM,7 µM,CCCNC[C@]1(O)[C@H](C)O[C@@H](O[C@H]2[C@H](C)[C@@H](O[C@@H]3O[C@H](C)C[C@H](N(C)S(=O)(=O)c4ccc(Cl)cc4)[C@H]3O)[C@](C)(O)C[C@@H](C)CN(C)[C@H](C)[C@@H](O)[C@](C)(O)[C@@H](CC)OC(=O)[C@@H]2C)C[C@@]1(C)OC [Example B-153]
–,–,33 µM,17 µM,CC[C@H]1OC(=O)[C@H](C)[C@@H](O[C@H]2C[C@@](C)(OC)[C@](O)(CNc3ccc(OC)cc3)[C@H](C)O2)[C@H](C)[C@@H](O[C@@H]2O[C@H](C)C[C@H](N(C)S(=O)(=O)c3ccc(Cl)cc3)[C@H]2O)[C@](C)(O)C[C@@H](C)CN[C@H](C)[C@@H](O)[C@]1(C)O [Example B-27]
–,–,6 µM,5 µM,CC[C@H]1OC(=O)[C@H](C)[C@@H](O[C@H]2C[C@@](C)(OC)[C@](O)(CNCCC(C)C)[C@H](C)O2)[C@H](C)[C@@H](O[C@@H]2O[C@H](C)C[C@H](N(C)S(=O)(=O)c3ccc(Cl)cc3)[C@H]2O)[C@](C)(O)C[C@@H](C)CN[C@H](C)[C@@H](O)[C@]1(C)O [Example B-21]
–,–,10 µM,45 µM,CCCNC[C@]1(O)[C@H](C)O[C@@H](O[C@H]2[C@H](C)[C@@H](O[C@@H]3O[C@H](C)C[C@H](N(C)S(=O)(=O)c4cnc5ccccn45)[C@H]3Oc3ccc(OC)cc3)[C@](C)(O)C[C@@H](C)CN[C@H](C)[C@@H](O)[C@](C)(O)[C@@H](CC)OC(=O)[C@@H]2C)C[C@@]1(C)OC [Example B-118]
–,–,8 µM,5 µM,CC[C@H]1OC(=O)[C@H](C)[C@@H](O[C@H]2C[C@@](C)(OC)[C@](O)(CN3CCCCC3)[C@H](C)O2)[C@H](C)[C@@H](O[C@@H]2O[C@H](C)C[C@H](N(C)S(=O)(=O)Nc3ccc(C)cc3)[C@H]2O)[C@](C)(O)C[C@@H](C)CN[C@H](C)[C@@H](O)[C@]1(C)O [Example C-32]
–,–,7 µM,5 µM,CC[C@H]1OC(=O)[C@H](C)[C@@H](O[C@H]2C[C@@](C)(OC)[C@](O)(CN3CCCCC3)[C@H](C)O2)[C@H](C)[C@@H](O[C@@H]2O[C@H](C)C[C@H](N(C)S(=O)(=O)c3ccc(F)cc3)[C@H]2O)[C@](C)(O)C[C@@H](C)CN[C@H](C)[C@@H](O)[C@]1(C)O [Example C-19]
–,–,5 µM,6 µM,CC[C@H]1OC(=O)[C@H](C)[C@@H](O[C@H]2C[C@@](C)(OC)[C@](O)(CN3CCCCC3)[C@H](C)O2)[C@H](C)[C@@H](O[C@@H]2O[C@H](C)C[C@H](N(C)S(=O)(=O)c3ccc(C(F)(F)F)cc3)[C@H]2O)[C@](C)(O)C[C@@H](C)CN[C@H](C)[C@@H](O)[C@]1(C)O [Example C-18]
